Data taken from ChEMBL document CHEMBL1201862, “PubChem BioAssay data set” (2004).
Calls of active or inactive are those of the source.

Experiments:
Fatty acid synthase [1] = biological target: T1, Fatty acid synthase (Homo sapiens, UniProt P49327); experiment: inhibition of human FAS-TE enzyme activity – biochemical, endpoint fluorescence intensity, uHTS hits, dose response (AID 624327); assay type: functional;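 also: fluorescence from hydrolysis of an O-methyl fluorescein acyl ester substrate by the enzyme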
T1 sequence (P49327 whole entry): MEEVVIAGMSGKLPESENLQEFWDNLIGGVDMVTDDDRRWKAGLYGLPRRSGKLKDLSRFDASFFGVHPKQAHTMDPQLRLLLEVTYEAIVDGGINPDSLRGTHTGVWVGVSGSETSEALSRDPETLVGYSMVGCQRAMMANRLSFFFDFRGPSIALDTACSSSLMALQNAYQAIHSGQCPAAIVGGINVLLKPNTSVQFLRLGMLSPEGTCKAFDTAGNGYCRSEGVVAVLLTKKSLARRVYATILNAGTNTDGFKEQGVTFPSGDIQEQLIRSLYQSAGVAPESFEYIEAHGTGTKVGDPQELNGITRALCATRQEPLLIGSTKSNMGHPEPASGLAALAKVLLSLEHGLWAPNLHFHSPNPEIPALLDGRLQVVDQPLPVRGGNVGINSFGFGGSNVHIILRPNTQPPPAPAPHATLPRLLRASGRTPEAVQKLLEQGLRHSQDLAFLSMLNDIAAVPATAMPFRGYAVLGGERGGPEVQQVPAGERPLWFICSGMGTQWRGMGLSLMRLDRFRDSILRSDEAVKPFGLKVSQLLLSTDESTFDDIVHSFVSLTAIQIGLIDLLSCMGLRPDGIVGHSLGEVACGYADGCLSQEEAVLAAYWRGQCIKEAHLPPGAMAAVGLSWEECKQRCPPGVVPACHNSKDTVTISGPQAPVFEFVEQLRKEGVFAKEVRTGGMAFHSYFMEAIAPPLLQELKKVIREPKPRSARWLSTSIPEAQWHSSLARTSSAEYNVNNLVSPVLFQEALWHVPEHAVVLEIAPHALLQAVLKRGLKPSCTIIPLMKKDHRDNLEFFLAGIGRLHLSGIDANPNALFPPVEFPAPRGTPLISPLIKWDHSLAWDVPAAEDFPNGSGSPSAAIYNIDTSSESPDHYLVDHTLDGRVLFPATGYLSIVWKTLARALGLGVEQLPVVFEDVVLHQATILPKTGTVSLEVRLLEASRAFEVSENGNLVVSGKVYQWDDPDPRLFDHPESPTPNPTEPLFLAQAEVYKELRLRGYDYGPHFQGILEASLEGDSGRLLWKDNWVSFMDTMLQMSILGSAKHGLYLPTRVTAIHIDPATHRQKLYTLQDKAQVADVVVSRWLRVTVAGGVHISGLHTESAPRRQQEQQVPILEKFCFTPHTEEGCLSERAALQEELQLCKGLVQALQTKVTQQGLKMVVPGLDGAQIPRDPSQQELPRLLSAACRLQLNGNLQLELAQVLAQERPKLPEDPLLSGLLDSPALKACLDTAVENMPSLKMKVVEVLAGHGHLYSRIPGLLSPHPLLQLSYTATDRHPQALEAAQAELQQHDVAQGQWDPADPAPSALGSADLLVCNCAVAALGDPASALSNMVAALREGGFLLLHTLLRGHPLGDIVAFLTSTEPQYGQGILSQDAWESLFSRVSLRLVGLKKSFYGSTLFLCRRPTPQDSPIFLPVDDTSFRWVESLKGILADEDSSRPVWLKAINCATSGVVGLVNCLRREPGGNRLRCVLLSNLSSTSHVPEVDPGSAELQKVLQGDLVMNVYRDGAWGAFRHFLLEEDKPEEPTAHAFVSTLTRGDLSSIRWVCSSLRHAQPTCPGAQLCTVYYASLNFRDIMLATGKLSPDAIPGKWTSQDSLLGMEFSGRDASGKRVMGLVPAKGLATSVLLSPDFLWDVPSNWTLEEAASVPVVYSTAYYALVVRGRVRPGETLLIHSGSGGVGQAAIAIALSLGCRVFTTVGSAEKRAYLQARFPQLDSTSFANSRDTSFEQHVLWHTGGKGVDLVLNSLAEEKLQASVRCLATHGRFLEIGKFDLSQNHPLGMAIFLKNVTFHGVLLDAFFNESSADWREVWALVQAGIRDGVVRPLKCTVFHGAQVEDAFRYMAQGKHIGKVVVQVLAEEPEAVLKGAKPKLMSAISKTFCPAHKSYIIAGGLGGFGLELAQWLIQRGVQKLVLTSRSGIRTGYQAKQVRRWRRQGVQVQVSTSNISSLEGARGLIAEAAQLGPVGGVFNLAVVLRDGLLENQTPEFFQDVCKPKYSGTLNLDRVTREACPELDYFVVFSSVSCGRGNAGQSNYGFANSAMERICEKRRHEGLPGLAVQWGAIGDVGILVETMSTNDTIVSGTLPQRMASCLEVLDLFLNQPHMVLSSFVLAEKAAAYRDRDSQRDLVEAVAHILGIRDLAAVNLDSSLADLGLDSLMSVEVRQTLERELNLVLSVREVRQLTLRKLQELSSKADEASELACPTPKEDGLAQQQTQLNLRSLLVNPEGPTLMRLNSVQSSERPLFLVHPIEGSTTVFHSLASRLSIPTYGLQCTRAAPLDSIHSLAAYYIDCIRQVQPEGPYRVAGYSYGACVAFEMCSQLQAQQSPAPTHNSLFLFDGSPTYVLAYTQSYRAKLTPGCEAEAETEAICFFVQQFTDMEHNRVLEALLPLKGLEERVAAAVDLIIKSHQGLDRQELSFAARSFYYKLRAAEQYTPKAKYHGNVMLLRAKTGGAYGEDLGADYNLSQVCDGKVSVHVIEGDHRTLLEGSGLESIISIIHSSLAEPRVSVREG

Fatty acid synthase [2] = biological target: T1, Fatty acid synthase; experiment: inhibition of human FAS-TE enzyme activity – biochemical, kinetic fluorescence intensity, dose response (AID 624326); assay type: functional;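 also: rate of fluorescence rise from hydrolysis of a fluorogenic O-methyl fluorescein ester substrate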
[3] = biological target: T2, Heat shock factor protein 1 (Mus musculus, UniProt P38532); experiment: enhancement of HSF1-driven luciferase signal – cell-based, NIH3T3, luminescence, dose retest, confirmation (AID 435004); assay type: functional;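 also: stress induced by proteasome inhibitor MG132 added 30 min after compound; luciferase reporter driven by HSF1 response element in NIH3T3 cells; actives raise luminescence as potentiators of the MG132 stress response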
T2 sequence (P38532 whole entry): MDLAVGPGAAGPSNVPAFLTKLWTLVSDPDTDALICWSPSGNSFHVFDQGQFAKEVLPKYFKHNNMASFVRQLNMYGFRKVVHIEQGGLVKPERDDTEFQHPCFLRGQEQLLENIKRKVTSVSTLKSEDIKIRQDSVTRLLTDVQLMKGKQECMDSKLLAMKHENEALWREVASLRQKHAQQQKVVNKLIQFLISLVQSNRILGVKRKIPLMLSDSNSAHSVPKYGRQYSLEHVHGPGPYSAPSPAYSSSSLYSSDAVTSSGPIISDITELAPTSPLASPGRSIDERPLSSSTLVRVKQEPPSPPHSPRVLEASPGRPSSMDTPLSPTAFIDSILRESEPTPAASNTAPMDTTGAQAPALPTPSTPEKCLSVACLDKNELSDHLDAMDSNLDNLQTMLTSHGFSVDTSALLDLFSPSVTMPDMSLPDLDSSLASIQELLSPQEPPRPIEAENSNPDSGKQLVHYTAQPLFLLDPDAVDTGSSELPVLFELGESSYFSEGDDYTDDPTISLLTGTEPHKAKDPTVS

Cytochrome P450 1A2 = biological target: T3, Cytochrome P450 1A2 (Homo sapiens, UniProt P05177);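 also: PubChem cytochrome P450 panel assay, CYP1A2 panel member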
T3 sequence (P05177 whole entry): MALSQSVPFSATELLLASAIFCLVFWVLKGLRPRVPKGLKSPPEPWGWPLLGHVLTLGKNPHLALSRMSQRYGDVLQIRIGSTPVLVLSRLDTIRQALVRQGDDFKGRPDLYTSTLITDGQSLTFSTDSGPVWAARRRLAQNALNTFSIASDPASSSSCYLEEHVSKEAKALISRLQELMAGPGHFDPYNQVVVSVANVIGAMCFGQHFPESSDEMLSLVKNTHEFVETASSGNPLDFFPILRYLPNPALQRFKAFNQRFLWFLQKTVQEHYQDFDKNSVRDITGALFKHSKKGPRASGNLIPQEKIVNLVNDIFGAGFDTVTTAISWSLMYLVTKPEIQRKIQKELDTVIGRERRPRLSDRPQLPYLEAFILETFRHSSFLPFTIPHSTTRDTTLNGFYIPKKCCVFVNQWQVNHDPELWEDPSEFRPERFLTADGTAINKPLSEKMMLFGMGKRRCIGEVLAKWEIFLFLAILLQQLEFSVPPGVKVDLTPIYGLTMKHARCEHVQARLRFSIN

[4] = loss of viability in HepG2 cells – cell-based, CellTiter-Glo, cherry-picked, cytotoxicity control for Shn3 inhibitor project, dose response (AID 624134); assay type: functional
[5] = non-specific 3'UTR reporter inhibition in Clone20-Shn3RL – cell-based, Renilla luciferase, cherry-picked, counter-screen for Shn3 inhibitor project, dose response (AID 624133); assay type: functional
[6] = reduction of Shn3 3'UTR-driven luciferase in osteoblasts – cell-based, Clone20 osteoblasts, firefly luciferase, cherry-picked, dose response (AID 624132); assay type: functional;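 also: firefly luciferase luminescence from reporter carrying the Shn3 3'UTR in osteoblasts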
[7] = viability of uninfected HEp-2 cells – cell-based, HTS, cytotoxicity control for RSV inhibitor project, dose response (AID 2410); assay type: functional; details: human respiratory syncytial virus
[8] = biological target: T4, Replicative DNA helicase DnaB (Mycobacterium tuberculosis, UniProt P9WMR3); experiment: DnaB intein splicing inhibitors, dose response, biochemical, cell-free fluorescence (AID 449749); assay type: functional
T4 sequence (P9WMR3 whole entry): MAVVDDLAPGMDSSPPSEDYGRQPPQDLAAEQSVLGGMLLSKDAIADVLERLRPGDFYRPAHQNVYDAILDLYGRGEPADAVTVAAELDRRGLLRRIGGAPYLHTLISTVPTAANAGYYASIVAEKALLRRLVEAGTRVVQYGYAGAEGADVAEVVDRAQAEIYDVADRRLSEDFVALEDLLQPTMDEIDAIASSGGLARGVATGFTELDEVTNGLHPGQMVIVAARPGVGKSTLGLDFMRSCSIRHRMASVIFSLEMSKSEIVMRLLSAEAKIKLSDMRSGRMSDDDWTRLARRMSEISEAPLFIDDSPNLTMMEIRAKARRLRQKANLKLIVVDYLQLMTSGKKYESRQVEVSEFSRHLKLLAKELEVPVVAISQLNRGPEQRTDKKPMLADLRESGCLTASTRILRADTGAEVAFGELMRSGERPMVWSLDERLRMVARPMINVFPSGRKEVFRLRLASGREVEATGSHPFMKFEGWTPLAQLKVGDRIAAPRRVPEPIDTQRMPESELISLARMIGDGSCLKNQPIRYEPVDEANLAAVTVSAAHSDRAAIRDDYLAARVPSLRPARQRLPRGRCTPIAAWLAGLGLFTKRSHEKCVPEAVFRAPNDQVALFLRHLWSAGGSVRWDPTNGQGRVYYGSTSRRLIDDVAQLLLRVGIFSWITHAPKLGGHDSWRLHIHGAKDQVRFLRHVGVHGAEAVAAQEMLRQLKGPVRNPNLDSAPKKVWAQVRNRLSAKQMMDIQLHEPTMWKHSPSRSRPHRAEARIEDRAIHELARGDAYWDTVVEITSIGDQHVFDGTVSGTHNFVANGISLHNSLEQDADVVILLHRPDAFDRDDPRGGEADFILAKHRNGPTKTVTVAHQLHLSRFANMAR

Protein RecA = biological target: T5, Protein RecA (Mycobacterium tuberculosis, UniProt P9WHJ3); experiment: Fluorescence Cell-Free Homogeneous Dose Retest to Identify Inhibitors of RecA-Intein Splicing Activity. [Related pubchem assays (depositor defined):AID2097, AID2223, AID489010, AID492950]; assay type: functional
T5 sequence (P9WHJ3 whole entry): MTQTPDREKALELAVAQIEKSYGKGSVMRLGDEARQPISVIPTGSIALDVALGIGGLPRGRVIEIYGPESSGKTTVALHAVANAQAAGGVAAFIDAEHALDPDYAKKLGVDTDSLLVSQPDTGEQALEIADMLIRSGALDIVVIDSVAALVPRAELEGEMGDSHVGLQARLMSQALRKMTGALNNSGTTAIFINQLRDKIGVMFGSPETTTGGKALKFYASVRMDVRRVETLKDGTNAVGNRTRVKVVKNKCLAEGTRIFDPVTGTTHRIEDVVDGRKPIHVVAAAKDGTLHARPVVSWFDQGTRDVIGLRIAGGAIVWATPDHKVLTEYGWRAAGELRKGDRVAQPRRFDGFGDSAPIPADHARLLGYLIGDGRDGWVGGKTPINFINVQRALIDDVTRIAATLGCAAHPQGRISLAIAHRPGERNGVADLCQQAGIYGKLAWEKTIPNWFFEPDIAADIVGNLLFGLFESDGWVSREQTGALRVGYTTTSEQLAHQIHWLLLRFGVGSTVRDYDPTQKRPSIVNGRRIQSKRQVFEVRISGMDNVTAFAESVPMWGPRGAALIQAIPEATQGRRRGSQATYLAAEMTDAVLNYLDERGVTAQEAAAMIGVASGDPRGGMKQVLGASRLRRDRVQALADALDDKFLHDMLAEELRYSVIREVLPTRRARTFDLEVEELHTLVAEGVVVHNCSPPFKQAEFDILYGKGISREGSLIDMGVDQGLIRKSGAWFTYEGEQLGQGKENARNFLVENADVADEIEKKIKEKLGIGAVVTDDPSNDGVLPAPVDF

[9] = viability of HCT116 lacking mutant beta-catenin – cell-based, human colon tumor, dose response (AID 1045); assay type: functional;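 also: HCT116 colon tumor cells with beta catenin knocked out; cells exposed to compound for 60 hours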
[10] = viability of PTEN-deleted HCT116 cells – cell-based, HCT116 PTEN knockout, dose response (AID 1047); assay type: functional;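 also: HCT116 colon tumor cells with PTEN knocked out; cells exposed to compound for 60 hours before readout; potency for loss of cell viability measured by luminescence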
Protein skinhead-1 = biological target: T6, Protein skinhead-1 (Caenorhabditis elegans, UniProt P34707); assay type: functional
T6 sequence (P34707 whole entry): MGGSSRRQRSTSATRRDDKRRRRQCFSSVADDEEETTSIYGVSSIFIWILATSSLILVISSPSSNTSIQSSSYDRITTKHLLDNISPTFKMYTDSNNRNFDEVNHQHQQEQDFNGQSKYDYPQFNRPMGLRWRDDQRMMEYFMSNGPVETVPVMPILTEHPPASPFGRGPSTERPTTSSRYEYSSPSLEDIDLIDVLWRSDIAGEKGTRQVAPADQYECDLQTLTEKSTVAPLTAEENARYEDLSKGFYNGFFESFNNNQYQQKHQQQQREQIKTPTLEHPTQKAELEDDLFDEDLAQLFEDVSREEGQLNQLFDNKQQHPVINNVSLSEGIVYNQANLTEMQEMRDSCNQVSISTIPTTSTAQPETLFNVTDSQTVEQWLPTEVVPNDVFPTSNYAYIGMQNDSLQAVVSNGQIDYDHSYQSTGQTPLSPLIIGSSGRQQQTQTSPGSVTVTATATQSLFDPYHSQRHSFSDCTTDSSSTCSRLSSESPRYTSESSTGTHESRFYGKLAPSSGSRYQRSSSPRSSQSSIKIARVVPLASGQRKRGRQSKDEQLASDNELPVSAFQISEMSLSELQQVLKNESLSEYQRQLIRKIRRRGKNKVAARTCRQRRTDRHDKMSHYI

Compound	IC50 (Fatty acid synthase [1])	IC50 (Fatty acid synthase [2])	EC50 [3]	further results
CC1CCCCN1C(=O)COC(=O)c1cc([N+](=O)[O-])ccc1N1CCOCC1 (stereo unspecified)	9.09 µM (active)	10.9 µM (active)		
CCn1c(S)nnc1CC(C)C			> 260 µM (inactive)	AC50 (Cytochrome P450 1A2): 22.4 µM (inconclusive)
CC(=O)Nc1ccc(N/C=C/C(=O)C(C)(C)C)cc1			> 260 µM (inactive)	
CC1CCCN(S(=O)(=O)c2ccc(NC(=O)Cc3ccc(S(=O)(=O)N4CCOCC4)s3)cc2)C1 (stereo unspecified)	7.85 µM (active)	9.35 µM (active)		
CC(=O)c1ccc(N2CCN(S(=O)(=O)c3ccc(-c4cnc(C5CC5)o4)cc3)CC2)cc1	24.4 µM (inactive)	11.6 µM (active)		AC50 [4]: 38.7 µM (active); AC50 [5]: 20.8 µM (active); AC50 [6]: 5.95 µM (active)
COC(=O)CCC(=O)COc1ccc(OC)cc1C#N			105 µM (active)	
O=C(NCCCc1ccccc1)c1cc([N+](=O)[O-])ccc1Cl	1.1 µM (active)	3.28 µM (active)		
O=C(c1ccc(Cl)c(S(=O)(=O)NCc2ccco2)c1)N1CCN(c2ccccc2F)CC1			> 260 µM (inactive)	
COc1ccc(Cl)cc1N(CC(=O)Nc1ccccc1SC)S(C)(=O)=O			> 260 µM (inactive)	
Cc1cc(C(c2ccc(O)cc2)c2cc(C)c(O)cc2C)c(C)cc1O				CC50 [7]: 20 µM (active); AC50 [8]: 4.7 µM (active); EC50 (Protein RecA): 100 µM (active)
CC(C)CCNC(=O)C1CC(c2cccc([N+](=O)[O-])c2)=NO1 (stereo unspecified)	8.3 µM (active)	11 µM (active)		
C=CC[n+]1c(-c2ccc(OC)cc2)csc1NNC(=O)Nc1ccccc1			> 260 µM (inactive)	
COc1ccc(N/C=C(\C=C\C#N)S(=O)(=O)c2ccccc2)cc1			> 260 µM (inactive)	
O=C(COC(=O)c1cc([N+](=O)[O-])ccc1N1CCOCC1)NC1CCCCC1	0.321 µM (active)	0.266 µM (active)		
COc1ccccc1/C=C/C(=O)c1cc(Br)ccc1OC(=O)c1ccco1			20.5 µM (active)	
N#C/C(=C\c1cccc(NC(=O)c2ccccc2Cl)c1)C(=O)NCCc1ccccc1				EC50 [9]: 15.1 µM (active); EC50 [10]: 14.4 µM (active); CC50 [7]: 15.6 µM (active); AC50 [8]: 8.73 µM (active); EC50 (Protein RecA): 11.2 µM (active)
CCOC(=O)C1CCN(C(=O)c2cc3cc4ccc(C)cc4nc3o2)CC1	11.3 µM (active)	12.2 µM (active)		
N#CC1(NC(=O)COC(=O)c2cc([N+](=O)[O-])ccc2N2CCCC2)CCCCC1	7.64 µM (active)	5.51 µM (active)		
CCOC(=O)c1c(C)n(-c2ccc(C)cc2)c2c(CC(C)=O)c(Br)c(OC)c(O)c12			> 260 µM (inactive)	
CN(Cc1ccccc1)c1nc(N)c([N+](=O)[O-])c(NCc2ccccc2)n1			> 260 µM (inactive)	
CCCCSc1nc(O)c(C(=O)OCC)cc1C#N				IC50 (Protein skinhead-1): > 100 µM (inactive)
COc1ccc(C(c2nnnn2-c2c(C)cccc2C)N2CCC(n3c(O)nc4ccccc43)CC2)cc1 (stereo unspecified)	16.5 µM (active)	16 µM (active)		
COc1cccc(Sc2ccccc2/C=N/NC(N)=O)c1			> 260 µM (inactive)	
O=C(CN1C(=O)c2cccc([N+](=O)[O-])c2C1=O)N1CCc2ccccc2C1		9.41 µM (active)		
C/C(CC(=O)N1CCN(C=O)CC1)=N\NC(=O)c1cccc([N+](=O)[O-])c1				AC50 [8]: 24.7 µM (active); EC50 (Protein RecA): 1.99 µM (active)
Cc1cccc(/C=N\NC(=O)c2csnn2)c1			> 260 µM (inconclusive)	
